Results from ChEMBL document CHEMBL1201862, “PubChem BioAssay data set” (2004).
Active and inactive are the calls of the source.

Legend:
[1] = NIH3T3 cell viability loss – ATP luminescence, mouse fibroblasts, counter-screen, dose response (AID 2010); assay type: functional, cell-based;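 also: cells exposed to compound for about 90 hours before reading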
[2] = Counterscreen for AddAB inhibitors: absorbance-based bacterial cell-based high throughput dose response assay for inhibitors of bacterial viability. [Related pubchem assays (depositor defined):AID435030, AID449728, AID449731, AID488942, AID488955, AID488956]; assay type: functional
[3] = Trypanosoma cruzi growth suppression in host cells – NIH3T3 host cells, beta-gal luminescence, confirmation (AID 2044); assay type: functional, cell-based;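 also: intracellular parasites grown in NIH/3T3 mouse fibroblasts as host cells; luminescent beta-galactosidase reporter signal from transgenic T. cruzi replicating inside host cells; inhibitors lower the luminescence signal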
[4] = target: T1, Serine/threonine-protein phosphatase (Candida dubliniensis (strain CD36 / CBS 7987 / NCPF 3949 / NRRLY-17841) (Yeast), UniProt B9W6M3); assay: blockers of CaCl2-induced CDRE-lacZ signaling – S. cerevisiae, luminescence, secondary, dose response (AID 2388); assay type: functional, cell-based;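 also: yeast reporter cells carrying a calcineurin-responsive lacZ construct stimulated with calcium chloride; luminescent beta-galactosidase reporter signal in whole cells rather than isolated phosphatase activity; potency for inhibition where a drop in reporter signal means calcineurin blockade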
T1 sequence (B9W6M3 whole entry): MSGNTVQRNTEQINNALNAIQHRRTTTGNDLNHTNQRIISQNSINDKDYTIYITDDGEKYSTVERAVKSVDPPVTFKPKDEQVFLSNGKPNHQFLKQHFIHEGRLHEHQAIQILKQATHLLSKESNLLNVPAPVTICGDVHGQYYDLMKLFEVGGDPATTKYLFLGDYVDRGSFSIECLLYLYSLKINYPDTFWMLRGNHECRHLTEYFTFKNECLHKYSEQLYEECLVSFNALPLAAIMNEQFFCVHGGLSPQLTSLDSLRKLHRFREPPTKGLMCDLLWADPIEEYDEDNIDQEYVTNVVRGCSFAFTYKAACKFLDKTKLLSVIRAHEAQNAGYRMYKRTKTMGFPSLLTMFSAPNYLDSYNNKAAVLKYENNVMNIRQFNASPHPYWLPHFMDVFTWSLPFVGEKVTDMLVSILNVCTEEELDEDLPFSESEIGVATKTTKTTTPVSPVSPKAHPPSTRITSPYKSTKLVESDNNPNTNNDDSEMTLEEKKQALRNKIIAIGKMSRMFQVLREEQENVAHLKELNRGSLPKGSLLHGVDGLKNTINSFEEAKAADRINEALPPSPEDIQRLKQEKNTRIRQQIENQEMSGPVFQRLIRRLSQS

[5] = luciferase reporter signal suppression in cells – H4 neuroglioma cells, luminescence, dose response (AID 1990); assay type: functional, cell-based
[6] = fluconazole-exposed Candida albicans growth modulators – fluorescence, retest, confirmation (AID 2467); assay type: functional, cell-based
Estrogen receptor = target: T2, Estrogen receptor (Homo sapiens, UniProt P03372);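 also: potency for inhibiting coactivator peptide recruitment to the receptor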
T2 sequence (P03372 whole entry): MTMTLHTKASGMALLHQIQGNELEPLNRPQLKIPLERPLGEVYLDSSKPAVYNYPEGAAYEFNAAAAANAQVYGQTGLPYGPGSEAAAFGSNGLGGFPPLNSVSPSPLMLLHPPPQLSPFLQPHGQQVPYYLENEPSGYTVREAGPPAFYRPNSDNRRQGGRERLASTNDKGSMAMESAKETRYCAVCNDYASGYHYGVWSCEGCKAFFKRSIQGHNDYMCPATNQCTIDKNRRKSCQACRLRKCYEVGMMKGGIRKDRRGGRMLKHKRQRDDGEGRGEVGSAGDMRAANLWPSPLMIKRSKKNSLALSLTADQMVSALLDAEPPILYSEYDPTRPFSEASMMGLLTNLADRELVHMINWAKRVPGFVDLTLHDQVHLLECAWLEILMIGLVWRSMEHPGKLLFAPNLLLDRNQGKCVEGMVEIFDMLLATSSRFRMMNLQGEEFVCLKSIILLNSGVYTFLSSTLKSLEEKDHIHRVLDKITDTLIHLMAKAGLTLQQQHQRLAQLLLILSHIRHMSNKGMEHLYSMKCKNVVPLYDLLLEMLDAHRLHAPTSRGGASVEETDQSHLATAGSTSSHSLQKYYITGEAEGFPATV

HT-1080 = assay: HT1080 cell viability loss – fluorescence readout (AID 620); assay type: functional, cell-based; details: Homo sapiens
[7] = target: Leukocyte tyrosine kinase receptor (Homo sapiens, UniProt P29376); assay: Navigating the Kinome. Panel member name: LTK; assay type: functional
[8] = target: Macrophage colony-stimulating factor 1 receptor (Homo sapiens, UniProt P07333); assay type: functional;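 also: value comes from the Navigating the Kinome screening panel, CSF1R member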
[9] = target: Dual specificity tyrosine-phosphorylation-regulated kinase 1B (Homo sapiens, UniProt Q9Y463); assay: Navigating the Kinome. Panel member name: DYRK1B; assay type: functional
[10] = target: Cyclin-dependent kinase 7 (Homo sapiens, UniProt P50613); assay type: functional;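 also: value comes from a kinome-wide kinase profiling panel in which CDK7 is one member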
[11] = target: Leucine-rich repeat serine/threonine-protein kinase 2 (Homo sapiens, UniProt Q5S007); assay type: functional;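 also: value from a broad kinome-wide panel profiling study in which LRRK2 was one of the kinases tested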
[12] = target: Tyrosine-protein kinase JAK3 (Homo sapiens, UniProt P52333); assay type: functional
[13] = target: Dual specificity mitogen-activated protein kinase kinase 1 (Homo sapiens, UniProt Q02750); assay: Navigating the Kinome. Panel member name: MAP2K1; assay type: functional
[14] = target: Cyclin-dependent kinase 9 (Homo sapiens, UniProt P50750); assay type: functional;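 also: value from the CDK9 entry of a kinome-spanning kinase panel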
[15] = target: Protein kinase C theta type (Homo sapiens, UniProt Q04759); assay: Navigating the Kinome. Panel member name: PRKCQ; assay type: functional
[16] = target: Tyrosine-protein kinase Fyn (Homo sapiens, UniProt P06241); assay type: functional
[17] = target: Vascular endothelial growth factor receptor 2 (Homo sapiens, UniProt P35968); assay type: functional
[18] = target: Rho-associated protein kinase 1 (Homo sapiens, UniProt Q13464); assay type: functional;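 also: measured within a broad kinome-wide panel profiling many kinases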
[19] = target: Serine/threonine-protein kinase pim-1 (Homo sapiens, UniProt P11309); assay type: functional
[20] = target: cAMP-dependent protein kinase catalytic subunit PRKX (Homo sapiens, UniProt P51817); assay type: functional
[21] = target: 5'-AMP-activated protein kinase catalytic subunit alpha-1 (Homo sapiens, UniProt Q13131); assay type: functional
[22] = target: Glycogen synthase kinase-3 alpha (Homo sapiens, UniProt P49840); assay type: functional;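 also: GSK3A result taken from a broad kinome-wide kinase panel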
[23] = target: Serine/threonine-protein kinase Chk1 (Homo sapiens, UniProt O14757); assay type: functional;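 also: measured as one member of a kinome-wide kinase profiling panel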
Activin receptor type-1 = Activin receptor type-1 (Homo sapiens, UniProt Q04771); assay: Navigating the Kinome. Panel member name: ACVR1; assay type: functional
[24] = target: Inhibitor of nuclear factor kappa-B kinase subunit epsilon (Homo sapiens, UniProt Q14164); assay: Navigating the Kinome. Panel member name: IKBKE; assay type: functional
[25] = target: Proto-oncogene tyrosine-protein kinase receptor Ret (Homo sapiens, UniProt P07949); assay type: functional;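 also: measured within a kinome-wide profiling panel, RET as the panel member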
Sequence of Proto-oncogene tyrosine-protein kinase receptor Ret (P07949 whole entry): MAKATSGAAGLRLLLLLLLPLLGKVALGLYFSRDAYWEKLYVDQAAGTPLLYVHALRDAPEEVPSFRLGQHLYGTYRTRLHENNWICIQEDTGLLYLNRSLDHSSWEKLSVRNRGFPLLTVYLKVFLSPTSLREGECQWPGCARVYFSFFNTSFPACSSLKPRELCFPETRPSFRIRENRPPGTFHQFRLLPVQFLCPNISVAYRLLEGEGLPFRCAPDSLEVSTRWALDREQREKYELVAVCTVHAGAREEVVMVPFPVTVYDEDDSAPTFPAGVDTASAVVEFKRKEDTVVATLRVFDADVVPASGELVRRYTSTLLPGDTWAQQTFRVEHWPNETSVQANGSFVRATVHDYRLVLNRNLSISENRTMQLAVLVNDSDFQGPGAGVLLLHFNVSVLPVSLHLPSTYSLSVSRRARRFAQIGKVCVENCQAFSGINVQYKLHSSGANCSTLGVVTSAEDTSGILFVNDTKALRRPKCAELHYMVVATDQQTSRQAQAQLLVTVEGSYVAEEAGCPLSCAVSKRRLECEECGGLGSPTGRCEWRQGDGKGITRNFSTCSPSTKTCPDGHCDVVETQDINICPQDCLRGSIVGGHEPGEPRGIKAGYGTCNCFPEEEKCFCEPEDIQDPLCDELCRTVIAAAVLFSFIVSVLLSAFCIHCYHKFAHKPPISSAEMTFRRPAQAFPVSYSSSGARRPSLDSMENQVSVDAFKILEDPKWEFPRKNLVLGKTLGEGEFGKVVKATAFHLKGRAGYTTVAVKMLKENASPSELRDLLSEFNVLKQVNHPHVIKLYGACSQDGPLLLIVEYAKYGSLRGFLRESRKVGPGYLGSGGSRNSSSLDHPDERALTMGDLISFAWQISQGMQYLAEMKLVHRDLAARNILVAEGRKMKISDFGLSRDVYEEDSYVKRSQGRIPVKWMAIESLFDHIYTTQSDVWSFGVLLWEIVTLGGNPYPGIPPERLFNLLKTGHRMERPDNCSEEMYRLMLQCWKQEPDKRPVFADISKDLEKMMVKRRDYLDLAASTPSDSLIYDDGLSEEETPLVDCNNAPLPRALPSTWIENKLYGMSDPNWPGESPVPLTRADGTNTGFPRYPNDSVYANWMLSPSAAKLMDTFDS

Sequence of Macrophage colony-stimulating factor 1 receptor (P07333 whole entry): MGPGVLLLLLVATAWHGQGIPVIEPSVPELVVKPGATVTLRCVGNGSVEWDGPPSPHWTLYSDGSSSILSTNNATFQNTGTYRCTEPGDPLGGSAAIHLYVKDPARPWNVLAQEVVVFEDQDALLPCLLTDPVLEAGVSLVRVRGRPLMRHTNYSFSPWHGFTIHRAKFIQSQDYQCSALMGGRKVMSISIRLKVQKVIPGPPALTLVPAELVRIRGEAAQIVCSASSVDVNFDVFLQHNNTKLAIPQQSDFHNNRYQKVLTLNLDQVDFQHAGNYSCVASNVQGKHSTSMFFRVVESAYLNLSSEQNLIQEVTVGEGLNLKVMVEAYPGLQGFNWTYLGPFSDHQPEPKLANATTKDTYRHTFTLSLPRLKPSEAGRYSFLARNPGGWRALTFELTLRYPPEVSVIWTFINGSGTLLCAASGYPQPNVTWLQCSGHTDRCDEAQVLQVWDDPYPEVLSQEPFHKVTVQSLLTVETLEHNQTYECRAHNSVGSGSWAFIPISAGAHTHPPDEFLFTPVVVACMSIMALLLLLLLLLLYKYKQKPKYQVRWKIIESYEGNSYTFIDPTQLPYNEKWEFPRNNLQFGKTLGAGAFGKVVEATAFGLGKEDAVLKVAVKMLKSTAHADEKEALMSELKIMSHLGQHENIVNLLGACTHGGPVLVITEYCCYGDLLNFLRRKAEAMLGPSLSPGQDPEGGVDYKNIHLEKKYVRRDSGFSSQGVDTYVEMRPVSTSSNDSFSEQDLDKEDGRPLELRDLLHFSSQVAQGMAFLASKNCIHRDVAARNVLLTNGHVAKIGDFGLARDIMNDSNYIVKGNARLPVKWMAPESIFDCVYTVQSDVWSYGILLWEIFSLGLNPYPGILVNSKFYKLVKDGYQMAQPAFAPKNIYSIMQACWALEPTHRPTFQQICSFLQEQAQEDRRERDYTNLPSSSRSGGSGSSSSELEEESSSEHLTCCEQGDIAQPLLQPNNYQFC
Sequence of Leukocyte tyrosine kinase receptor (P29376 whole entry): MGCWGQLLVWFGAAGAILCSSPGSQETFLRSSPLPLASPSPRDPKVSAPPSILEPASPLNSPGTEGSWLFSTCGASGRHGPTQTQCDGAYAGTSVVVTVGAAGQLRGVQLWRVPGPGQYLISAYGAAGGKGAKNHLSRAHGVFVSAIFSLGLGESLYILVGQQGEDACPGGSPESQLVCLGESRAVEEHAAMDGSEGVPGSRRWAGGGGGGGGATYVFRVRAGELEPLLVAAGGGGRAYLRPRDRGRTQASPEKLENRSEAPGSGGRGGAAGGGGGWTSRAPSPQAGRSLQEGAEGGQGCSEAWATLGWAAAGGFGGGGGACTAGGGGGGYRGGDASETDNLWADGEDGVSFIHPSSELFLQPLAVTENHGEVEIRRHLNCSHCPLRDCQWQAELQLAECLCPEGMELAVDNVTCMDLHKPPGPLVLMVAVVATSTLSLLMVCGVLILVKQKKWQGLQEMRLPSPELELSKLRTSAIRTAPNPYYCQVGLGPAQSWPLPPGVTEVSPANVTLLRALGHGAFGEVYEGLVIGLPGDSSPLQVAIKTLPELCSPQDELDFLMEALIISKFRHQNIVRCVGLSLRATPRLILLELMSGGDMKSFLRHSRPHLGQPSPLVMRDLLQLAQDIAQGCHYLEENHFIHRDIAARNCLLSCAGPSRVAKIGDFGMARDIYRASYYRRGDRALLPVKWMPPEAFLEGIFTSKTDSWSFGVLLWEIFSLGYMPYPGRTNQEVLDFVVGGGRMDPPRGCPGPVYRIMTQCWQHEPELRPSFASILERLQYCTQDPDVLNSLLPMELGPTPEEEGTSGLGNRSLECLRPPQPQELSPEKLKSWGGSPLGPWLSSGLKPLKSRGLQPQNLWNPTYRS
Sequence of Tyrosine-protein kinase JAK3 (P52333 whole entry): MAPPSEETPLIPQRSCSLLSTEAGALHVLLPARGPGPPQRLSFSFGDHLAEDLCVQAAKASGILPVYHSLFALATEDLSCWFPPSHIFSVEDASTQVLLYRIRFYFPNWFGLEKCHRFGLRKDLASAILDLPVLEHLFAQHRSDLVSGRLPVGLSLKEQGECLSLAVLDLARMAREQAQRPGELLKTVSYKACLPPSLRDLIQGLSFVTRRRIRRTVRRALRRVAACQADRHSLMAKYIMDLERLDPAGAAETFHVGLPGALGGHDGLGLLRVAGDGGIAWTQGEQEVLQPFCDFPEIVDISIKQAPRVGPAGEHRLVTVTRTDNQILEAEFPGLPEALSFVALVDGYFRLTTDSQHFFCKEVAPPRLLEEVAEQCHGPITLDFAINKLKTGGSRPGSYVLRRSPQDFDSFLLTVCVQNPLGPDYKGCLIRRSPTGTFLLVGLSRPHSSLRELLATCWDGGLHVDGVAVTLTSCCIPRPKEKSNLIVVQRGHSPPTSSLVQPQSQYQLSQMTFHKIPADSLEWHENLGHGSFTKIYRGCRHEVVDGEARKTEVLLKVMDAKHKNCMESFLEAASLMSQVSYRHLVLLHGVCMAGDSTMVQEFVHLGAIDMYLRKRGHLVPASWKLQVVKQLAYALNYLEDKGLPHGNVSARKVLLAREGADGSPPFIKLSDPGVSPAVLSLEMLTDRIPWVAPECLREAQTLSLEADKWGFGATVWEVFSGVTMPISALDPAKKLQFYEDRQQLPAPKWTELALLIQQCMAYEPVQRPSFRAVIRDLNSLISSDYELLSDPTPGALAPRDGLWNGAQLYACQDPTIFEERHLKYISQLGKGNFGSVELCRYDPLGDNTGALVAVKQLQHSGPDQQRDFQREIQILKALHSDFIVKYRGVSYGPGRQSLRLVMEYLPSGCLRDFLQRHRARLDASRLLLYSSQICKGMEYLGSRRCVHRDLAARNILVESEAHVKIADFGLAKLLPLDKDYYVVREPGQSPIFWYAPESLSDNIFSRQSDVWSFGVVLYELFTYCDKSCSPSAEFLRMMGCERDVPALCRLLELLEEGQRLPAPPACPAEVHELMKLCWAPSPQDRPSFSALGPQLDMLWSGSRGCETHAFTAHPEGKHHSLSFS
Sequence of Cyclin-dependent kinase 9 (P50750 whole entry): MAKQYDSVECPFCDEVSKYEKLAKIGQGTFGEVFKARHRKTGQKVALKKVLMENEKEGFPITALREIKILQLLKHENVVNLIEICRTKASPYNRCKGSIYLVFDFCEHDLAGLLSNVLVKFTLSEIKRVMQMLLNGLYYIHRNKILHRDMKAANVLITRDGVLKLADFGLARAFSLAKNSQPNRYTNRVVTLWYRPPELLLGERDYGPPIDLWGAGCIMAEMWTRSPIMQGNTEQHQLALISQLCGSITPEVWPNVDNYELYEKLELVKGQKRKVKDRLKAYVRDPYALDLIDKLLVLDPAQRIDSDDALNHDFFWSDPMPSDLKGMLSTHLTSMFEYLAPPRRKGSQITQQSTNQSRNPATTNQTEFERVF
Sequence of cAMP-dependent protein kinase catalytic subunit PRKX (P51817 whole entry): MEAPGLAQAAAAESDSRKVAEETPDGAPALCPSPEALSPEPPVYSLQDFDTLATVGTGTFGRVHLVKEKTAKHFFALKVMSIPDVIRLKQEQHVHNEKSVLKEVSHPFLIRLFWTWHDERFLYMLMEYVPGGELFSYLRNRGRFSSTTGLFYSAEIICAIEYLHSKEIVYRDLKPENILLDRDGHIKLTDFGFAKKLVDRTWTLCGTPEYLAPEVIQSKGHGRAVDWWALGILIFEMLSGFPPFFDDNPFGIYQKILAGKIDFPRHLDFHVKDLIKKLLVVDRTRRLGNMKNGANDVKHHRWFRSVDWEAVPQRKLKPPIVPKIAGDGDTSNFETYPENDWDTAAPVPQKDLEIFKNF

With CN1CCN(C(c2ccc(C(F)(F)F)cc2)c2cc(Cl)c3cccnc3c2O)CC1 (centres undefined) the EC50 [1] was 6.54 µM (active), the IC50 [2] was 105 µM (inactive) and the EC50 [3] was 1.32 µM (active). For the same molecule, the EC50 [4] was > 180 µM (inactive), the EC50 [5] was 10.5 µM (active) and the EC50 [6] was 0.666 µM (active).
In the case of NC(=O)c1c(NC(=O)c2cc3ccccc3o2)sc2c1CCC2, the IC50 (Estrogen receptor) is reported as 23.5 µM (active), the EC50 (cells) is reported as > 67.5 µM (inactive) and the EC50 (HT-1080) is reported as > 50 µM (not active).
In the case of O=C(NC(CCO)c1ccccc1)c1ccc(-c2ccncc2)cc1 (centres undefined), the Ki [7] is reported as > 2.51 µM (inactive), the Ki [8] is reported as > 2.51 µM (inactive) and the Ki [9] is reported as > 2.51 µM (inactive). The Ki [10] was > 3.98 µM (inactive), the Ki [11] was > 2.51 µM (inactive) and the Ki [12] was > 5.01 µM (inactive). The Ki [13] was > 3.16 µM (inactive), the Ki [14] was > 1.58 µM (inactive) and the Ki [15] was 1.58 µM (active). The Ki [16] was > 6.31 µM (inactive), the Ki [17] was > 2.51 µM (inactive) and the Ki [18] was 0.00631 µM (active). For the same molecule, the Ki [19] was > 6.31 µM (inactive), the Ki [20] was 0.316 µM (active) and the Ki [21] was > 3.16 µM (inactive). The Ki [22] was 1.26 µM (active), the Ki [23] was > 3.16 µM (inactive) and the Ki (Activin receptor type-1) was > 3.98 µM (inactive). For the same molecule, the Ki [24] was > 3.16 µM (inactive) and the Ki [25] was > 3.16 µM (inactive).
